Test results reported in PubChem BioAssay AID624367 (Broad Institute, 2012).
Calls of active or inactive are those of the source. How the calls were made is not given here.

Test: viability loss in LCL cells – cell-based, plate reader, dry powder, set 2, cytotoxicity control, dose response (AID 624367)
Conditions: Lymphoblastoid cell line (LCL) cytotoxicity, plate reader

In the case of C[C@H]1CN([C@@H](C)CO)C(=O)Cc2cc(NC(=O)Cc3ccccc3)ccc2O[C@@H]1CN(C)Cc1ccc(C(F)(F)F)cc1, the activity change, negative = cytotoxicity (at 35 µM (top of the series)) is reported as -5.68% (inactive).
In the case of Cc1noc(C)c1S(=O)(=O)Nc1ccc2c(c1)C(=O)N([C@@H](C)CO)C[C@H](C)[C@H](CN(C)Cc1ccc(C(F)(F)F)cc1)OCCCC[C@H](C)O2, the activity change, negative = cytotoxicity (at 35 µM (top of the series)) is reported as -5.45% (inactive).
In the case of Cc1ccc(S(=O)(=O)N(C)C[C@H]2Oc3cc(C#Cc4ccncc4)ccc3S(=O)(=O)N([C@@H](C)CO)C[C@@H]2C)cc1, the activity change, negative = cytotoxicity (at 35 µM (top of the series)) is reported as 8.38% (inactive).
For Cc1noc(C)c1S(=O)(=O)Nc1ccc2c(c1)C(=O)N([C@H](C)CO)C[C@H](C)[C@@H](CN(C)Cc1ccc(C(F)(F)F)cc1)OCCCC[C@@H](C)O2, the activity change, negative = cytotoxicity (at 35 µM (top of the series)) was -2.6% (inactive).
For O=C(C[C@H]1C[C@@H]2c3cc(NC(=O)c4ccc5c(c4)OCO5)ccc3O[C@@H]2[C@@H](CO)O1)NCc1ccc(Oc2ccccc2)cc1, the activity change, negative = cytotoxicity (at 35 µM (top of the series)) was -5.15% (inactive).
With C[C@@H]1CN([C@H](C)CO)C(=O)Cc2cc(NC(=O)Cc3ccccc3)ccc2O[C@H]1CN(C)Cc1ccc(C(F)(F)F)cc1 the activity change, negative = cytotoxicity (at 35 µM (top of the series)) was 3.94% (inactive).
In the case of C[C@H](CO)N1C[C@H](C)[C@@H](CN(C)C(=O)Nc2ccc(F)cc2)OCc2ccccc2-c2c(n(C)c3ccccc23)C1=O, the activity change, negative = cytotoxicity (at 35 µM (top of the series)) is reported as -2.81% (inactive).
For C[C@H](NC(=O)C[C@H]1C=C[C@H](NC(=O)Cc2ccccn2)[C@H](CO)O1)c1ccccc1, the activity change, negative = cytotoxicity (at 35 µM (top of the series)) was 10.5% (inactive).
With CO[C@H]1CN(C)C(=O)c2ccc(NC(=O)C3CC3)cc2OC[C@H](C)N(C(=O)c2ccccn2)C[C@H]1C the activity change, negative = cytotoxicity (at 35 µM (top of the series)) was -0.57% (inactive).
With CC(C)NC(=O)N1[C@H](CO)[C@H](c2ccc(C#CC3CCCCC3)cc2)[C@@H]1C#N the activity change, negative = cytotoxicity (at 35 µM (top of the series)) was -1.32% (inactive).
For C[C@H]1CN([C@@H](C)CO)C(=O)Cc2cc(NC(=O)Cc3ccccc3)ccc2O[C@H]1CN(C)Cc1ccc(C(F)(F)F)cc1, the activity change, negative = cytotoxicity (at 35 µM (top of the series)) was 2.21% (inactive).
In the case of Cc1noc(C)c1S(=O)(=O)Nc1ccc2c(c1)C(=O)N([C@H](C)CO)C[C@H](C)[C@H](CN(C)Cc1ccc(C(F)(F)F)cc1)OCCCC[C@@H](C)O2, the activity change, negative = cytotoxicity (at 35 µM (top of the series)) is reported as -2.12% (inactive).
In the case of C[C@@H]1CN([C@@H](C)CO)C(=O)c2c(c3ccccc3n2C)-c2ccccc2CO[C@H]1CN(C)C(=O)Nc1ccc(F)cc1, the activity change, negative = cytotoxicity (at 35 µM (top of the series)) is reported as 3.34% (inactive).
For COc1cccc(S(=O)(=O)N(C)C[C@@H]2Oc3cc(C4=CCCCC4)ccc3S(=O)(=O)N([C@H](C)CO)C[C@H]2C)c1, the activity change, negative = cytotoxicity (at 35 µM (top of the series)) was 7.75% (inactive).
With O=C(Cc1ccccn1)NCC[C@H]1CC[C@H](NC(=O)Nc2ccc(Cl)cc2)[C@H](CO)O1 the activity change, negative = cytotoxicity (at 35 µM (top of the series)) was 7.55% (inactive).
With CC(C)(C)[S@@](=O)N1Cc2cc(C(=O)NCCc3ccncc3)nc(-c3cccc(-c4cccnc4)c3)c2[C@H]1CCO the activity change, negative = cytotoxicity (at 35 µM (top of the series)) was 4.85% (inactive).
With C[C@H](NC(=O)C[C@H]1C[C@@H]2c3cc(NC(=O)c4cccnc4)ccc3O[C@@H]2[C@@H](CO)O1)c1ccccc1 the activity change, negative = cytotoxicity (at 35 µM (top of the series)) was -1.74% (inactive).
For COc1ccccc1CNC(=O)C[C@@H]1C[C@H]2c3cc(NC(=O)c4ccc5c(c4)OCO5)ccc3O[C@H]2[C@H](CO)O1, the activity change, negative = cytotoxicity (at 35 µM (top of the series)) was -4.54% (inactive).
With C[C@H](CO)N1C[C@H](C)[C@@H](CN(C)S(=O)(=O)c2cccc(F)c2)Oc2ncc(C#CC3CCCCC3)cc2C1=O the activity change, negative = cytotoxicity (at 35 µM (top of the series)) was 4.17% (inactive).
For CN(C)C(=O)c1cccc(-c2cccc(-c3nc(C(=O)NCc4ccccc4)cc4c3[C@@H](CCO)N([S@](=O)C(C)(C)C)C4)c2)c1, the activity change, negative = cytotoxicity (at 30 µM (top of the series)) was 8.17% (inactive).
In the case of C[C@@H]1CN([C@@H](C)CO)C(=O)c2c(c3ccccc3n2C)-c2ccccc2CO[C@@H]1CN(C)C(=O)Nc1ccc(F)cc1, the activity change, negative = cytotoxicity (at 35 µM (top of the series)) is reported as -5.86% (inactive).
In the case of O=C(Cc1ccccn1)NCC[C@H]1CC[C@@H](NC(=O)Nc2ccc(Cl)cc2)[C@@H](CO)O1, the activity change, negative = cytotoxicity (at 35 µM (top of the series)) is reported as -2.19% (inactive).
For C[C@H](NC(=O)C[C@@H]1C=C[C@@H](NC(=O)Cc2ccccn2)[C@@H](CO)O1)c1ccccc1, the activity change, negative = cytotoxicity (at 35 µM (top of the series)) was -1.09% (inactive).
For COc1cccc(-c2cccc(-c3nc(C(=O)NCC(F)(F)F)cc4c3[C@H](CCO)N([S@@](=O)C(C)(C)C)C4)c2)c1, the activity change, negative = cytotoxicity (at 35 µM (top of the series)) was -12.4% (inactive).
For CO[C@@H]1CN(C)C(=O)c2ccc(NC(C)=O)cc2OC[C@@H](C)N(Cc2ccccc2F)C[C@H]1C, the activity change, negative = cytotoxicity (at 35 µM (top of the series)) was 2.23% (inactive).
For COc1ccccc1C#Cc1ccc2c(c1)O[C@H](CN(C)Cc1cccnc1)[C@H](C)CN([C@H](C)CO)S2(=O)=O, the activity change, negative = cytotoxicity (at 35 µM (top of the series)) was -2.03% (inactive).
With CN(C)C(=O)c1ccc(-c2cccc(-c3nc(C(=O)NCc4ccccc4)cc4c3[C@@H](CCO)N([S@](=O)C(C)(C)C)C4)c2)cc1 the activity change, negative = cytotoxicity (at 35 µM (top of the series)) was -1.5% (inactive).
For COc1ccc(S(=O)(=O)N(C)C[C@H]2Oc3ncc(/C=C/c4ccccc4)cc3C(=O)N([C@H](C)CO)C[C@@H]2C)cc1, the activity change, negative = cytotoxicity (at 35 µM (top of the series)) was 7.14% (inactive).
For C[C@H](CO)N1C[C@H](C)[C@H](CN(C)Cc2ccc(Oc3ccccc3)cc2)Oc2ccc(NC(=O)CCCN(C)C)cc2C1=O, the activity change, negative = cytotoxicity (at 35 µM (top of the series)) was -0.446% (inactive).
For O=C(C[C@@H]1C[C@H]2c3cc(NS(=O)(=O)c4ccc(F)cc4)ccc3O[C@H]2[C@H](CO)O1)NCc1ccc(Oc2ccccc2)cc1, the activity change, negative = cytotoxicity (at 35 µM (top of the series)) was -1.34% (inactive).
